Measurements reported in patent publication US20240156773A1, “METHOD FOR INCREASING BLOOD DECANOIC ACID CONCENTRATION, BLOOD-DECANOIC-ACID-CONCENTRATION-INCREASING AGENT, PHARMACEUTICAL COMPOSITION, AND FOOD COMPOSITION” (The Nisshin OilliO Group, Ltd., priority 2021, published 2024).

Test: Administration test of triglyceride to rat: blood decanoic acid concentration
Conditions: in vivo, po
Procedure: Male SD rats aged 7 weeks (Japan SLC, Inc.) were kept using a TPX cage (W21.8×D37.3×H18.1 cm) with three rats or less/cage. The rats were fed ad libitum with solid feed “Labo MR stock” (Nosan Corporation.) sterilized with radiation throughout the feeding period, and fasted about 16 hours before the administration of a test fat and oil sample. The rats were fed ad libitum with distilled water as drinking water using a water supply bottle. The acclimation period was a week, and it was confirmed that abnormalities of general conditions were not observed on the final day of the acclimation period, and body weight was measured using an electronic scale (GX-3000; A & D Company, Limited). The rats were divided into 6 groups for each test fat and oil sample using a grouping software (Statlight; Yukms Co., Ltd.) so that the body weight of the groups was almost equal (6 rats in each group).
Each TG was orally administered in a single dose at 1 mL/body using a 1 mL disposable syringe and a disposable gastric tube for rats. […]
To the extracted lipid fraction, 2 ml of a 0.5 mol/L NaOH-methanol solution was added. […] The hexane layer was transferred to a vial, and used for GC (Agilent Technologies) in the conditions shown in Table 3, and the blood decanoic acid concentration was determined by the internal standard method. […]

- Blood decanoic acid concentration, average value: 124.4 µM
SMILES: CCCCCCCCCC(=O)OCC(COC(=O)CCCCCCCCC)OC(=O)CCCCCCCCC [TG1, tridecanoin]
